From US9434745B2, “7-oxo-thiazolopyridine carbonic acid derivatives and their use in the treatment, amelioration or prevention of a viral disease” (Savira Pharmaceuticals GmbH, priority 2012, dated 2016)

Tests used:
[1] = target: T1, influenza A virus (IAV) PA-Nter fragment (amino acids 1-209) (Influenza A virus, UniProt P31343); assay: FRET endonuclease activity assay; assay type: biochemical; conditions: for IC50: from initial reaction velocities (v0) of RNA substrate cleavage; for inhibition at 1 µM / inhibition at 10 µM / inhibition at 5 µM / inhibition at 25 µM / inhibition at 50 µM: read-out: FRET % reduction of v0
T1 construct: PA-Nter fragment (amino acids 1-209); made in house

SMILES	melting point	IC50 [1]	also measured
O=C(O)Cc1c[nH]c2nc(Nc3ccccc3)nn2c1=O	279 to 281 °C		
O=C(O)c1cn(Cc2ccccc2)c2cc(C3CC3)nn2c1=O	210 to 215 °C		
O=C(O)c1cn(CCc2ccccc2)c2cc(C3CC3)nn2c1=O	185 to 190 °C		
O=C(O)c1cn(CCc2ccc(O)cc2)c2cc(C3CC3)nn2c1=O	265 to 270 °C		
COc1ccc(CCn2cc(C(=O)O)c(=O)n3nc(C4CC4)cc23)cc1	145 to 150 °C		
O=C(O)c1cn(CCc2ccc(C(F)(F)F)cc2)c2cc(C3CC3)nn2c1=O	225 to 230 °C		
O=C(O)c1cn(CCc2cccc(Cl)c2)c2cc(C3CC3)nn2c1=O	230 to 235 °C		
O=C(O)c1cn(CCc2cccc(F)c2)c2cc(C3CC3)nn2c1=O	220 to 225 °C		
O=C(O)c1cn(CCc2cccc(C(F)(F)F)c2)c2cc(C3CC3)nn2c1=O	200 to 205 °C		
O=C(O)c1cn(CCCc2ccccc2)c2cc(C3CC3)nn2c1=O	95 to 100 °C		
CC(C)c1cc2n(Cc3ccccc3)cc(C(=O)O)c(=O)n2n1	180 to 185 °C		
CC(C)c1cc2n(CCc3ccccc3)cc(C(=O)O)c(=O)n2n1	220 to 225 °C		
O=C(O)c1cn(Cc2ccccc2)c2cc(C3CCCC3)nn2c1=O	213 to 215 °C		
O=C(O)c1cn(CCc2ccccc2)c2cc(C3CCCC3)nn2c1=O	198 to 200 °C		
O=C(O)Cc1c[nH]c2cc(C3CC3)nn2c1=O	> 300 °C		
CCOC(=O)c1c[nH]c2nc(NCc3ccc(Br)cc3)nn2c1=O	286 to 287 °C		
CCOC(=O)c1c[nH]c2nc(NCc3cccc4ccccc34)nn2c1=O	273 to 275 °C		
CCOC(=O)c1c[nH]c2nc(Nc3ccc(NC(C)=O)cc3)nn2c1=O	> 330 °C		
CCOC(=O)Cc1c[nH]c2nc(Nc3ccccc3)nn2c1=O	255 to 257 °C		
CCOC(=O)c1c[nH]c2c(C#N)c(CCCNC)nn2c1=O	285 to 287 °C		
O=C(O)c1c[nH]c2cc(C3CC3)nn2c1=O	275 to 278 °C		
O=C(O)c1c[nH]c2cc(C(F)(F)F)nn2c1=O	> 340 °C		
CCOC(=O)c1cn(CCc2ccccc2)c2cc(C3CC3)nn2c1=O	155 to 160 °C		
CCOC(=O)c1cn(CCc2ccc(O)cc2)c2cc(C3CC3)nn2c1=O	95 to 100 °C		

SMILES	melting point	IC50 [1]	also measured
CCOC(=O)c1cn(CCc2cccc(Cl)c2)c2cc(C3CC3)nn2c1=O	160 to 165 °C		
CCOC(=O)c1cn(CCc2cccc(F)c2)c2cc(C3CC3)nn2c1=O	160 to 165 °C		
CCOC(=O)c1cn(CCc2cccc(C(F)(F)F)c2)c2cc(C3CC3)nn2c1=O	140 to 145 °C		
CCOC(=O)c1cn(Cc2ccccc2)c2cc(C(C)C)nn2c1=O	135 to 140 °C		
CCOC(=O)c1cn(CCc2ccccc2)c2cc(C(C)C)nn2c1=O	130 to 135 °C		
CCOC(=O)Cc1c[nH]c2cc(C(F)(F)F)nn2c1=O	290 to 293 °C		
CCOC(=O)Cc1c[nH]c2cc(C3CC3)nn2c1=O	280 to 283 °C		
CCOC(=O)c1c[nH]c2cc(C(=O)NCCc3ccc(Cl)cc3)nn2c1=O	> 300 °C		
CCOC(=O)c1c[nH]c2cc(C(=O)NCc3ccccc3)nn2c1=O	290 to 292 °C		
O=C(O)c1c[nH]c2nc(NCc3ccccc3)nn2c1=O	240 to 245 °C		
O=C(O)c1c[nH]c2nc(NCc3cccc4ccccc34)nn2c1=O	245 to 250 °C		
O=C(O)c1cn(Cc2ccccc2-c2ccccc2)c2sc(NS(=O)(=O)c3ccccc3)nc2c1=O		6.5 µM	
O=C(O)c1cn(Cc2ccccc2-c2ccccc2)c2sc(NCc3ccccc3)nc2c1=O		3.2 µM	
CNc1nc2c(=O)c(C(=O)O)cn(Cc3ccccc3-c3ccccc3)c2s1		2.8 µM	
O=C(O)c1cn(Cc2ccccc2-c2ccccc2)c2sc(NC3CC3)nc2c1=O		2.5 µM	
CC(C)Nc1nc2c(=O)c(C(=O)O)cn(Cc3ccccc3-c3ccccc3)c2s1		14 µM	
COCCNc1nc2c(=O)c(C(=O)O)cn(Cc3ccccc3-c3ccccc3)c2s1		9 µM	
O=C(O)c1cn(Cc2ccccc2-c2ccccc2)c2sc(N3CCOCC3)nc2c1=O		0.78 µM	
O=C(O)c1cn(Cc2ccccc2-c2ccccc2)c2sc(NS(=O)(=O)Cc3ccccc3)nc2c1=O		7.3 µM	
O=C(O)c1cn(Cc2ccccc2-c2ccccc2)c2sc(NS(=O)(=O)c3cccc(F)c3)nc2c1=O		6.7 µM	
CS(=O)(=O)Nc1nc2c(=O)c(C(=O)O)cn(Cc3ccccc3-c3ccccc3)c2s1		8.1 µM	
O=C(O)c1cn(Cc2ccccc2-c2ccccc2)c2sc(NCc3ccc(Cl)cc3)nc2c1=O		2.3 µM	
COc1ccc(CNc2nc3c(=O)c(C(=O)O)cn(Cc4ccccc4-c4ccccc4)c3s2)cc1		2.9 µM	
O=C(O)c1cn(Cc2ccccc2-c2ccccc2)c2sc(NCc3cccc(Cl)c3)nc2c1=O		5.2 µM	

SMILES	melting point	IC50 [1]	also measured
CC(Nc1nc2c(=O)c(C(=O)O)cn(Cc3ccccc3-c3ccccc3)c2s1)c1ccccc1 (stereo not shown)		5.8 µM	
O=C(O)c1cn(Cc2ccccc2-c2ccccc2)c2sc(O)nc2c1=O		0.16 µM	
COc1ccc(S(=O)(=O)Nc2nc3c(=O)c(C(=O)O)cn(Cc4ccccc4-c4ccccc4)c3s2)cc1		2.7 µM	
O=C(O)c1cn(Cc2ccccc2-c2ccccc2)c2sc(NS(=O)(=O)c3ccc(Cl)cc3F)nc2c1=O		5.7 µM	
CCOC(=O)c1cn(Cc2ccccc2-c2ccccc2)c2sc(NS(=O)(=O)c3ccc(Cl)cc3)nc2c1=O			inhibition at 1 µM [1]: 6.2%
CCOC(=O)c1cn(Cc2ccccc2-c2ccccc2)c2sc(NCc3c(Cl)cccc3Cl)nc2c1=O		6.3 µM	
CCOC(=O)c1ccc(S(=O)(=O)Nc2nc3c(=O)c(C(=O)OCC)cn(Cc4ccccc4-c4ccccc4)c3s2)cc1			inhibition at 1 µM [1]: 8.1%
COc1ccc(CNc2nc3c(=O)c(C(=O)O)cn(C(c4ccccc4)c4ccccc4)c3s2)cc1			inhibition at 10 µM [1]: 21.5%
CCOC(=O)c1cn(C(c2ccccc2)c2ccccc2)c2sc(NS(=O)(=O)c3ccc(Cl)cc3F)nc2c1=O			inhibition at 1 µM [1]: 5.6%
O=C(O)c1cn(C(c2ccccc2)c2ccccc2)c2sc(NS(=O)(=O)c3ccc(Cl)cc3F)nc2c1=O			inhibition at 1 µM [1]: 2%
COc1ccc(S(=O)(=O)Nc2nc3c(=O)c(C(=O)O)cn(C(c4ccccc4)c4ccccc4)c3s2)cc1			inhibition at 1 µM [1]: 7.8%
CCOC(=O)c1cn(C(c2ccccc2)c2ccccc2)c2sc(NS(=O)(=O)c3ccc(OC)cc3)nc2c1=O			inhibition at 1 µM [1]: 25%
O=C(O)c1cn(C(c2ccccc2)c2ccccc2)c2sc(O)nc2c1=O		0.78 µM	
COc1ccc(CNc2nc3c(=O)c(C(=O)O)cn(Cc4ccc(Cl)cc4-c4ccccc4)c3s2)cc1		3.8 µM	
O=C(O)c1cn(Cc2ccc(Cl)cc2-c2ccccc2)c2sc(O)nc2c1=O		0.87 µM	
O=C(O)c1cn(Cc2ccccc2-c2ccccc2)c2scnc2c1=O			inhibition at 10 µM [1]: 64%
O=C(O)c1cn(Cc2ccccc2-c2ccccc2)c2sc(NS(=O)(=O)Cc3ccc(Cl)cc3Cl)nc2c1=O		7 µM	
N#Cc1ccc(S(=O)(=O)Nc2nc3c(=O)c(C(=O)O)cn(Cc4ccccc4-c4ccc(Cl)cc4)c3s2)cc1		2.5 µM	
COc1ccc(S(=O)(=O)Nc2nc3c(=O)c(C(=O)O)cn(Cc4ccccc4-c4ccc(Cl)cc4)c3s2)cc1		7.2 µM	
O=CNc1nc2c(=O)c(C(=O)O)cn(Cc3ccccc3-c3ccccc3)c2s1		4.7 µM	
COc1ccc(CNc2nc3c(=O)c(C(=O)O)cn(Cc4ccccc4-c4cc(C)ccc4C)c3s2)cc1		2.1 µM	
Nc1nc2c(=O)c(C(=O)O)cn(Cc3ccccc3-c3ccccc3)c2s1		0.94 µM	
Cc1ccc(C)c(-c2ccccc2Cn2cc(C(=O)O)c(=O)c3nc(O)sc32)c1		0.25 µM	
O=C(O)c1c[nH]c2ccnn2c1=O		58 µM	

SMILES	melting point	IC50 [1]	also measured
O=C(O)c1c[nH]c2ncnn2c1=O			inhibition at 5 µM [1]: 26%
CC(C)c1cc2[nH]cc(C(=O)O)c(=O)n2n1		35 µM	
O=C(O)c1c[nH]c2cc(C3CCCC3)nn2c1=O			inhibition at 25 µM [1]: 41%
O=C(O)c1cn(Cc2ccccc2-c2ccccc2)c2ccnn2c1=O			inhibition at 50 µM [1]: 29%
O=c1cc[nH]c2nc(NS(=O)(=O)Cc3ccccc3)nn12		34 µM	
Nc1cc2[nH]cc(C(=O)O)c(=O)n2n1		10 µM	
Nc1cc2n(Cc3ccccc3)cc(C(=O)O)c(=O)n2n1			inhibition at 50 µM [1]: 35%
Nc1cc2n(S(=O)(=O)c3ccccc3)cc(C(=O)O)c(=O)n2n1		71 µM	
CS(=O)(=O)n1cc(C(=O)O)c(=O)n2nc(N)cc12			inhibition at 25 µM [1]: 31%
Nc1cc2n(S(=O)(=O)Cc3ccccc3)cc(C(=O)O)c(=O)n2n1			inhibition at 25 µM [1]: 50%
Nc1cc2n(Cc3ccccc3-c3ccccc3)cc(C(=O)O)c(=O)n2n1			inhibition at 10 µM [1]: 38%
CC(C)c1cc2n(CCCc3ccccc3)cc(C(=O)O)c(=O)n2n1 [drawing 215]			inhibition at 5 µM [1]: 23%
O=C(O)c1c[nH]c2nc(NCc3ccccc3)nn2c1=O [drawing 216]		50 µM	
O=C(O)c1cn(CCc2ccccc2)c2cc(C3CCCC3)nn2c1=O [drawing 219]			inhibition at 25 µM [1]: 42%
Nc1cc2n(C(=O)C3(c4ccccc4)CCCC3)cc(C(=O)O)c(=O)n2n1 [drawing 220]			inhibition at 25 µM [1]: 20%
CC(C)c1cc2n(CCCc3ccccc3)cc(C(=O)O)c(=O)n2n1 [drawing 222]			inhibition at 25 µM [1]: 22%
CCOC(=O)c1cn(CCc2ccc(O)cc2)c2cc(C3CC3)nn2c1=O [drawing 223]			inhibition at 25 µM [1]: 22%
O=C(O)c1cn(CCc2cccc(Cl)c2)c2cc(C3CC3)nn2c1=O [drawing 224]			inhibition at 25 µM [1]: 30%
O=C(O)c1cn(CCc2cccc(C(F)(F)F)c2)c2cc(C3CC3)nn2c1=O [drawing 225]			inhibition at 25 µM [1]: 32%
O=C(O)c1cn(CCc2cccc(F)c2)c2cc(C3CC3)nn2c1=O [drawing 226]		62 µM	
O=C(O)c1cn(CCc2ccc(O)cc2)c2cc(C3CC3)nn2c1=O [drawing 227]			inhibition at 25 µM [1]: 27%
COc1ccc(CCn2cc(C(=O)O)c(=O)n3nc(C4CC4)cc23)cc1 [drawing 228]		69 µM	
